Values of other authors as cited in patent publication EP4778540A1, “ANTIBODY-DRUG CONJUGATE CONTAINING HETEROCYCLIC COMPOUND HAVING ACTIVITY OF INDUCING DECOMPOSITION OF G12D MUTANT KRAS PROTEIN” (Astellas Pharma Inc., priority 2023, dated 2025).
Counter-ions that a name gives are not always drawn.

Biological target: T1, mutant RAS G12D protein (Homo sapiens, UniProt P01116, G12D)
T1 construct: endogenous in cells; host or cells: AsPC-1 (human pancreatic cancer line)
Settings: human G12D mutant KRAS-positive pancreatic cancer line AsPC-1, cited from earlier work; for DC50: DC50 of D10 calculated from a molecular weight in terms of 4 hydrochloride

T1 sequence (P01116 1-188 isoform P01116-2 G12D): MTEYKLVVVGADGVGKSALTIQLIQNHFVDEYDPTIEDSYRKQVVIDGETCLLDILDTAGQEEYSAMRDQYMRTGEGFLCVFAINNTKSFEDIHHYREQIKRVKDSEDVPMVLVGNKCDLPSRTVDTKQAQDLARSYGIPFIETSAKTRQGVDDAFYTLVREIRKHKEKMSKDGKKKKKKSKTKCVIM

| SMILES | DC50 [nM] | Dmax [%] |
| --- | --- | --- |
| COC(C)COc1nc(N(C)C2CCNC2)c2cc(C3CC3)c(-c3c(C)c(F)cc4[nH]ncc34)c(OCc3ccc(-c4cn(C(C(=O)N5CC(O)CC5C(=O)NC(CO)c5ccc(-c6scnc6C)cc5)C(C)C)nn4)cc3)c2n1 [D7, (4R)-1-[(2S)-2-{4-[4-({[(7M)-6-cyclopropyl-7-(6-fluoro-5-methyl-1H-indazol-4-yl)-2-[(2S)-2-methoxypropoxy]-4-{methyl[(3S)-pyrrolidin-3-yl]amino}quinazolin-8-yl]oxy}methyl)phenyl]-1H-1,2,3-triazol-1-yl}-3-methylbutanoyl]-4-hydroxy-N-{(1R)-2-hydroxy-1-[4-(4-methyl-1,3-thiazol-5-yl)phenyl]ethyl}-L-prolinamide] | 10 |  |
| Cc1c(F)cc2[nH]ncc2c1-c1c(C2CC2)cc2c(N3CC4CC3CN4)nc(OC3CCOCC3)nc2c1OCc1ccc(C(=O)N2CCN(Cc3ccc4c(c3)n(C)c(=O)n4C3CCC(=O)NC3=O)CC2C)cc1 [D9, 3-(5-{[(3S)-4-{4-[({(7M)-6-cyclopropyl-4-[(1S,4S)-2,5-diazabicyclo[2.2.1]heptan-2-yl]-7-(6-fluoro-5-methyl-1H-indazol-4-yl)-2-[(oxan-4-yl)oxy]quinazolin-8-yl}oxy)methyl]benzoyl} -3-methylpiperazin-1-yl]methyl}-3-methyl-2-oxo-2,3-dihydro-1H-benzimidazol-1-yl)piperidine-2,6-dione] | 13 | 86 |
| Cc1c(F)cc2[nH]ncc2c1-c1c(C2CC2)cc2c(N3C[C@@H]4C[C@H]3CN4)nc(OC3CCOCC3)nc2c1OCc1ccc(C(=O)N2CCN(Cc3ccc4c(N5CCC(=O)NC5=O)nn(C)c4c3)C[C@@H]2C)cc1 [D10, 1-(6-{[(3S)-4-{4-[({(7M)-6-cyclopropyl-4-[(1S,4S)-2,5-diazabicyclo[2.2.1]heptan-2-yl]-7-(6-fluoro-5-methyl-1H-indazol-4-yl)-2-[(oxan-4-yl)oxy]quinazolin-8-yl}oxy)methyl]benzoyl}-3-methylpiperazin-1-yl]methyl}-1-methyl-1H-indazol-3-yl)-1,3-diazinane-2,4-dione n-hydrochloride] | 71 | 86 |
| CO[C@@H](C)COc1nc(N2C[C@@H]3C[C@H]2CN3)c2cc(C3CC3)c(-c3c(C)c(F)cc4[nH]ncc34)c(OCc3ccc(C(=O)N4CCN(Cc5ccc6c(c5)n(C)c(=O)n6C5CCC(=O)NC5=O)C[C@@H]4C)cc3)c2n1 (stereo partly drawn) [D11, 3-(5-{[(3S)-4-{4-[({(7M)-6-cyclopropyl-4-[(1S,4S)-2,5-diazabicyclo[2.2.1]heptan-2-yl]-7-(6-fluoro-5-methyl-1H-indazol-4-yl)-2-[(2S)-2-methoxypropoxy]quinazolin-8-yl}oxy)methyl]benzoyl}-3-methylpiperazin-1-yl]methyl}-3-methyl-2-oxo-2,3-dihydro-1H-benzimidazol-1-yl)piperidine-2,6-dione] | 8 | 86 |
